Experimental data taken from US20140039004A1, “METHOD OF TREATING OF GASTROESOPHAGEAL REFLUX DISEASE” (ONO PHARMACEUTICAL CO., LTD., priority 2012, published 2014).
Like-named read-outs stand apart in the source and are kept apart here.

Legend:
Format in all cases: in vivo, Cynomolgus monkeys
[1] = test system: transient lower esophageal sphincter relaxation; test: Action on transient lower esophageal sphincter relaxation (TLESR) (2); conditions: 0.01 and 0.1 mg/kg s.c. 30 min before high-fat diet and air injection; measured for 45 minutes; vs vehicle-administered group; FIG. 3
Experimental: Cynomolgus monkeys (aged 4 to 6 years, female, Japan Laboratory Animals, Inc., no history of administration) were acclimated to a monkey chair for 2 days or more, and were fasted for 12 hours or more. After that, on the day of experiment, the monkeys were immobilized in the monkey chair after the measurement of body weight, and was acclimated for another one hour or more. A high-fat diet/air injection catheter and a sensor catheter for measuring pressure were inserted from a nostril and the oral cavity. A high-fat diet was injected into the stomach so that the final volume would be 80 mL, and air was then injected up to a pressure in the stomach of 20 mmHg, and maintained. The pressure in the esophagus was measured by a sensor catheter in the lower esophageal sphincter region and the positions approximately 2, 3 and 6 cm above the lower esophageal sphincter. […] The frequency of TLESR was measured for 45 minutes from the injection of high-fat diet to the end of ventilation. Here, TLESR was measured considering that the relaxation response of the lower esophageal sphincter region was longer by […] and was not elicited by peristaltic motion occurring in the esophagus, and the rate of reduction of pressure was greater than […], and measured. […]

[2] = test system: hypersensitivity in the esophagus evoked by continuous electrical stimulation; test: Hypersensitivity model evoked by electrical stimulation (nociceptive threshold)
Experimental: Cynomolgus monkeys (aged 4 to 6 years, female, Japan Laboratory Animals, Inc., no history of administration) were acclimated to a monkey chair for 2 days or more, and were fasted for 12 hours or more. After that, on the day of experiment, the monkeys were immobilized in the monkey chair after the measurement of body weight, and were acclimated for another one hour or more. An electrostimulation catheter was inserted from a nostril, and electrical stimulation was applied at the position approximately 10 cm above the cardiac part of stomach (the upper esophagus). […] This was carried out three times every 2 to 3 minutes at each evaluation time point, and the average value was used as a nociceptive behavior threshold at each time point. Hypersensitivity was induced by continuous electrical stimulation to the position approximately 3 cm above the cardiac region (the lower esophagus). That is, an electrostimulation catheter was inserted from a nostril, and electrical stimulation was applied at the position of the lower esophagus for 30 minutes. […] The endpoint was assessed by comparing the nociceptive thresholds before and after continuous electrical stimulation, the nociceptive threshold of the vehicle-administered group at each time point and the nociceptive threshold of the Compound A-administered group at each time point. […]

[3] = Evaluation of penetration into the center (plasma, CSF and tissue concentration by LC/MS/MS); conditions: female, cynomolgus monkey, subcutaneous, 0.1 mg/kg s.c., 180 minutes after administration; for concentration at 180 min: n=3
Experimental: Cynomolgus monkeys (aged 4 to 6 years, female, Japan Laboratory Animals, Inc., no history of administration) were immobilized in a monkey chair, and Compound A was subcutaneously administered thereto (0.1 mg/kg), followed by collecting blood at 180 minutes after administration. The blood samples were centrifuged at 10000 g at 4° C. for 3 minutes to collect plasma. Next, the cerebrospinal fluid was collected under anesthesia by intravenous administration of pentobarbital sodium, and the lower esophagus, the upper esophagus, the dorsal root ganglion, the spinal cord and the brain stem were then collected. Furthermore, the dorsal root ganglion and the spinal cord were collected from the first to sixth thoracic spinal cord, which controls esophageal nerves. To the collected tissue, 4 times the amount of saline per wet weight of each tissue was added, followed by homogenization using Physcotron to obtain each tissue homogenate. The number of animals was 3.
The concentration of Compound A in each tissue was measured by a LC/MS/MS method.
To the samples for 50 μL of a calibration curve and test samples of Compound A, 1 mL of ultrapure water and an internal standard substance were added under ice cold conditions, followed by stirring. To a solid phase extraction cartridge (OAS1S MAX 30 mg/1 cc, Waters Corporation) which had been conditioned in advance, each sample was loaded and washing was carried out, followed by centrifugation, and a cleaning liquid was discharged from the cartridge for drying. Further, elution was carried out with 1 mL of an acetonitrile/acetic acid mixed liquid (49:1), and the eluate was concentrated and dried under a current of nitrogen (40° C. or less). The residue was redissolved in 200 μL of a methanol/0.1 vol % acetic acid solution (70: 30) to obtain a sample for the measurement of LC/MS/MS.
The analysis by LC/MS/MS was carried out under the following conditions.
Measuring device: Nanospace 3033 (Shiseido Co., Ltd.) Analysis column: SunFire C18 3.5 μm (2.1 mm i.d.×100 mm, 3.5 μm, Waters Corporation) Mobile phase: Acetonitrile/0.1 vol % acetic acid solution (70: 30) Cleaning liquid for cleaning port (one component): 2-propanol Cleaning liquid for cleaning port (two components): Mobile phase [acetonitrile/0.1 vol % acetic acid solution (70: 30)] Flow rate: 0.2 mL/min Column temperature: 35° C. Sample temperature: 4° C. Analysis time: 13 minutes
Measuring device: API4000 (AB SCIEX) Ion source: ESI Scan type: MRM
Using the peak area ratio (standard substance/internal standard substance) obtained by the measurement of a sample for a calibration curve, the calibration curve (y=aX+b, Y: Peak area ratio, X: Concentration) was made from the single regression line by the least squares method, and the peak area ratios of test samples were applied to the calibration curve to calculate a measured value.

[4] = test system: hypersensitivity in the esophagus evoked by hydrochloric acid perfusion; test: Hypersensitivity model evoked by acid (nociceptive threshold to esophageal electrical stimulation)
Experimental: Cynomolgus monkeys (aged 4 to 6 years, female, Japan Laboratory Animals, Inc., no history of administration) were acclimated to a monkey chair for 2 days or more, and were fasted for 12 hours or more. After that, on the day of experiment, the monkeys were immobilized in the monkey chair after the measurement of body weight, and were acclimated for another one hour or more. An electrostimulation catheter was inserted from a nostril, and electrical stimulation was applied at the position approximately 10 cm above the cardiac part of stomach (the upper esophagus). […] This was carried out three times every 2 to 3 minutes at each evaluation time point, and the average value was used as a nociceptive threshold at each time point. Saline or hydrochloric acid (1.5 N) was perfused from the position approximately 3 cm above the cardiac region (the lower esophagus) to the stomach at an injection rate of 160 mL/h for 30 minutes. The nociceptive thresholds were measured before and after perfusion of saline in the esophagus, before perfusion of hydrochloric acid in the esophagus and at 0, 30, 60, 90 and 120 minutes after perfusion of hydrochloric acid in the esophagus. The vehicle or Compound A (0.01 and 0.1 mg/kg, respectively) was subcutaneously administered 30 minutes before the start of the perfusion of hydrochloric acid. […] The endpoint was assessed by comparing the nociceptive thresholds before and after perfusion of hydrochloric acid, the nociceptive threshold of the vehicle-administered group at each time point and the nociceptive threshold of the Compound A-administered group at each time point. […]

Kp at 180 min ([3]; brain stem / plasma, read-out: percentage to the concentration in plasma, brain stem tissue): 0.057
concentration at 180 min ([3]; brain stem, tissue homogenate, read-out: average concentration in brain stem tissue): 0.22 ng/mL
Kp at 180 min ([3]; cerebrospinal fluid / plasma, read-out: percentage to the concentration in plasma, cerebrospinal fluid): 0.019
concentration at 180 min ([3]; cerebrospinal fluid, read-out: average concentration in cerebrospinal fluid): 0.07 ng/mL
Kp at 180 min ([3]; dorsal root ganglion / plasma, read-out: percentage to the concentration in plasma, dorsal root ganglion): 0.163
concentration at 180 min ([3]; dorsal root ganglion, tissue homogenate, read-out: average concentration in dorsal root ganglion): 0.62 ng/mL
Kp at 180 min ([3]; lower esophagus / plasma, read-out: percentage to the concentration in plasma, lower esophagus): 0.067
concentration at 180 min ([3]; lower esophagus, tissue homogenate, read-out: average concentration in lower esophagus): 0.25 ng/mL
concentration at 180 min ([3]; plasma, read-out: average concentration in plasma): 3.79 ng/mL
Kp at 180 min ([3]; spinal cord / plasma, read-out: percentage to the concentration in plasma, spinal cord): 0.051
concentration at 180 min ([3]; spinal cord, tissue homogenate, read-out: average concentration in spinal cord): 0.19 ng/mL
Kp at 180 min ([3]; upper esophagus / plasma, read-out: percentage to the concentration in plasma, upper esophagus): 0.073
concentration at 180 min ([3]; upper esophagus, tissue homogenate, read-out: average concentration in upper esophagus): 0.28 ng/mL
SMILES: Cc1cc(C(=O)O)ccc1COc1cc2c(cc1N(CC(C)C)S(=O)(=O)c1nccs1)CCC2 [Compound A, 4-[({6-[isobutyl(1,3-thiazol-2-ylsulfonyl)amino]-2,3-dihydro-1H-inden-5-yl}oxy)methyl]-3-methyl benzoic acid]
frequency of TLESR [1]: dose-dependently decreased
decrease in nociceptive threshold after continuous electrical stimulation ([2]; 0.1 mg/kg s.c. 30 min before 30 min electrical stimulation of lower esophagus, FIG. 2): suppressed to a normal level
duration of suppressive action after continuous electrical stimulation ([2]; 0.1 mg/kg s.c., time after end of continuous electrical stimulation): ≥ 120 min
nociceptive threshold after hydrochloric acid perfusion ([4]; 0.1 mg/kg s.c. 30 min before HCl perfusion, FIG. 1): suppressed to a normal level
decrease in nociceptive threshold after hydrochloric acid perfusion ([4]; Compound A 0.01 and 0.1 mg/kg s.c. 30 min before HCl (1.5 N) perfusion, vs control group, FIG. 1): dose-dependently suppressed
duration of suppressive action after hydrochloric acid perfusion ([4]; Compound A-administered groups, s.c., time after end of HCl perfusion): ≥ 120 min
